Eight compounds from PubChem BioAssay (NCI) can be followed below.

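Each compound was tested at five concentrations against cells in 96-well plates for 48 hours. At the TGI there is no net growth.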

What all share (assay): growth of human tumour cells (NCI), 48 h
Test [1] concerns A498 renal.
Test [2] relates to CAKI-1 renal.
For test [3], the system named is CCRF-CEM leukemia.
The subject of test [4] is DU-145 prostate.
Test [5] has as its system HCT-116 colon.
Test [6] relates to HL-60(TB) leukemia.
Test [7] concerns HOP-92 NSCLC.
In test [8] the test system is KM12 colon.
For test [9], the system named is LOX IMVI melanoma.
The test system of test [10] is MDA-N.
Test [11] deals with NCI-H460 lung.
Test [12] concerns OVCAR-5 ovarian.
Test [13] concerns OVCAR-8 ovarian.
The test system of test [14] is RXF 393 renal.
Test [15] deals with SF-539 CNS.
Test [16] deals with SNB-75 CNS.
Test [17] concerns U251 CNS.
The test system of test [18] is SK-MEL-28 melanoma.

`CC1C2(C)OC(=N)C(C#N)(C(c3ccccc3)O2)C1(C#N)C#N` (configuration not stated): the TGI in test [1] is more than 100 µM; in [2], 26.6 µM; in [3], 67.6 µM; in [4] it was more than 100 µM; in test [5], 49.8 µM; in [6], 40.1 µM. Further, the TGI in [7] is 29.7 µM; in [8], more than 100 µM; in [9], 36.9 µM; in test [10], 44.4 µM; in test [11], 25.1 µM; in test [12], 69.5 µM. The TGI in test [13] is more than 100 µM; in [14], 87.5 µM; in test [15], 40.3 µM; in test [16] it was more than 100 µM; in test [17], 46.6 µM.
Consider `O=C1C(Cl)C2(CC(/C=C/c3ccccc3Cl)=NN2c2cccc(S(=O)(=O)O)c2)N1c1nc2ccccc2s1` (configuration not stated), for which the TGI in [1] was more than 100 µM; in [2], 38.6 µM; in [3], 33.9 µM; in test [4], 87.5 µM; in test [5], more than 100 µM; in [6], more than 100 µM. The TGI in test [7] is more than 100 µM; in [8], more than 100 µM; in test [9] it was 27.4 µM; in [10] it was more than 100 µM; in test [11] it was more than 100 µM; in test [12], more than 100 µM. Also, the TGI is more than 100 µM in test [13]; more than 100 µM in test [14]; 37.6 µM in test [15]; more than 100 µM in test [18]; more than 100 µM in test [16]; more than 100 µM in test [17].
Turning to `Cc1cc2ccccc2n2c1nc1ccccc12`, the TGI is 76.7 µM in [1]; more than 100 µM in [3]; more than 100 µM in [4]; more than 100 µM in [5]; more than 100 µM in test [6]; more than 100 µM in test [7]. Further, the TGI in [8], in [10], in [11], in [12], in test [13] and in test [14] was more than 100 µM each time. In addition, the TGI in [15], in test [18], in test [16] and in test [17] was more than 100 µM throughout.
Consider `C=C1c2ccccc2C(=O)c2c1c1c(C(=O)OC)c(O)ccc1n2Cc1ccccc1`, for which the TGI in [1] came out at 2.27 µM; in test [2], 1.71 µM; in [3], 0.74 µM; in [4] it was 0.745 µM; in [5], 1.43 µM; in test [6], 0.857 µM. In addition, the TGI in test [7] worked out at 0.613 µM; in [8] it was 1.7 µM; in test [9], 0.628 µM; in test [10] it was 1.55 µM; in test [11], 2.34 µM; in test [12] it was 2.44 µM. The TGI in [13] came out at 0.952 µM; in test [14] it was 0.976 µM; in [15], 0.657 µM; in test [18], 1.07 µM; in [16], 0.899 µM; in [17], 0.763 µM.
`CNc1ncnc2c1ncn2C1C=CC(COS(N)(=O)=O)C1` (configuration not stated): the TGI in [1], in test [2], in test [3], in test [4], in [5] and in [6] was more than 100 µM throughout. Further, the TGI in test [7], in [8], in test [9], in test [10], in test [11] and in [13] was more than 100 µM in each case. Further, the TGI in test [14], in [15], in test [18], in [16] and in test [17] was more than 100 µM throughout.
Consider `Cn1c2ccccc2n2c(N=O)c(-c3ccccc3)nc12`, for which the TGI in test [1], in test [2], in [3], in test [4], in [5] and in test [6] was more than 100 µM each time. Besides, the TGI in test [7] is more than 100 µM; in test [8] it was 69.8 µM; in test [9] it was more than 100 µM; in test [10] it was more than 100 µM; in [11], 48.3 µM; in test [12], more than 100 µM. Besides, the TGI was more than 100 µM in [13]; more than 100 µM in test [14]; more than 100 µM in test [18]; 49.8 µM in test [16]; more than 100 µM in [17].
Turning to `CCOC(CN(C)C(=O)Nc1cccc2ccccc12)OCC`, the TGI in test [1], in [2], in test [3], in test [4], in test [5] and in test [6] was more than 10 µM throughout. Moreover, the TGI in [7], in test [8], in test [9], in test [10], in [11] and in [13] was more than 10 µM throughout. Moreover, the TGI in [14], in test [15], in test [18], in test [16] and in [17] was more than 10 µM throughout.
For the compound `CCOc1cc(NC(C)=O)ccc1C(=O)NN1C(=O)C(Cl)C1c1ccccc1` (configuration not stated), the TGI in [1] was 31.7 µM; in test [2], 30.1 µM; in test [3], 38.6 µM; in test [4], 32.2 µM; in test [5] it was 38.9 µM; in test [6], 36.1 µM. For the same compound, the TGI turned out to be 31.7 µM in test [7]; 32.9 µM in test [8]; 3.55 µM in [9]; 32.9 µM in test [10]; 33.6 µM in test [11]; 31.4 µM in [12]. Besides, the TGI was more than 100 µM in test [13]; 33.5 µM in test [14]; 35.4 µM in [15]; 36.4 µM in test [18]; 29.7 µM in test [16].
